Assay results: patent US20260193264A1, “BENZOYPARAZINE PYRAZINES AND THEIR USES” (FOGHORN THERAPEUTICS INC., priority 2022, published 2026)

Legend:
[1] = target: T1, HiBit-BRG1 fusion protein in stable HeLa cell line expressing HiBit-BRG1 and LgBit (Homo sapiens, UniProt P51532); assay: HiBiT-BRG1 cell-based degradation assay (Nano-Glo HiBiT, 24 h); details: HeLa HiBit-BRG1/LgBit cells; for Dmax: top dose 30 μM, read-out: BRG1 HiBit Degradation Maximum (%); for DC50: read-out: BRMG1 HiBit Degradation IC50
T1 construct: expressed in transfected cells
Method in brief: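 Degradation calculated from NanoBiT luminescence relative to DMSO-treated cells (high) and cells given 2 μM known BRM/BRG1 degrader (low). HeLa cells stably expressing HiBiT-BRG1 plus LgBiT were exposed to compound for 24 h before lytic HiBiT detection.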

[2] = target: T2, HiBiT-BRM fusion protein in stable HeLa cell line (Homo sapiens, UniProt P51531); assay: HiBiT-BRM cell-based degradation assay (Nano-Glo HiBiT Lytic Detection, 24 h); parameters: DC50: scale not given here; details: HeLa HiBiT-BRM cells; for DC50: read-out: BRM HiBit Degradation IC50; for BRM HiBit Degradation Maximum (%): top dose 30 μM
T2 construct: expressed in transfected cells
Method in brief: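 HiBiT-tagged BRM levels in a stable HeLa line are measured after one day of compound treatment (up to 30 μM final, duplicate 10-point curves) by adding LgBiT lytic reagent and reading bioluminescence; values are expressed relative to vehicle and a 2 μM degrader control.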

T1 sequence (P51532 whole entry, the tested form may be a part): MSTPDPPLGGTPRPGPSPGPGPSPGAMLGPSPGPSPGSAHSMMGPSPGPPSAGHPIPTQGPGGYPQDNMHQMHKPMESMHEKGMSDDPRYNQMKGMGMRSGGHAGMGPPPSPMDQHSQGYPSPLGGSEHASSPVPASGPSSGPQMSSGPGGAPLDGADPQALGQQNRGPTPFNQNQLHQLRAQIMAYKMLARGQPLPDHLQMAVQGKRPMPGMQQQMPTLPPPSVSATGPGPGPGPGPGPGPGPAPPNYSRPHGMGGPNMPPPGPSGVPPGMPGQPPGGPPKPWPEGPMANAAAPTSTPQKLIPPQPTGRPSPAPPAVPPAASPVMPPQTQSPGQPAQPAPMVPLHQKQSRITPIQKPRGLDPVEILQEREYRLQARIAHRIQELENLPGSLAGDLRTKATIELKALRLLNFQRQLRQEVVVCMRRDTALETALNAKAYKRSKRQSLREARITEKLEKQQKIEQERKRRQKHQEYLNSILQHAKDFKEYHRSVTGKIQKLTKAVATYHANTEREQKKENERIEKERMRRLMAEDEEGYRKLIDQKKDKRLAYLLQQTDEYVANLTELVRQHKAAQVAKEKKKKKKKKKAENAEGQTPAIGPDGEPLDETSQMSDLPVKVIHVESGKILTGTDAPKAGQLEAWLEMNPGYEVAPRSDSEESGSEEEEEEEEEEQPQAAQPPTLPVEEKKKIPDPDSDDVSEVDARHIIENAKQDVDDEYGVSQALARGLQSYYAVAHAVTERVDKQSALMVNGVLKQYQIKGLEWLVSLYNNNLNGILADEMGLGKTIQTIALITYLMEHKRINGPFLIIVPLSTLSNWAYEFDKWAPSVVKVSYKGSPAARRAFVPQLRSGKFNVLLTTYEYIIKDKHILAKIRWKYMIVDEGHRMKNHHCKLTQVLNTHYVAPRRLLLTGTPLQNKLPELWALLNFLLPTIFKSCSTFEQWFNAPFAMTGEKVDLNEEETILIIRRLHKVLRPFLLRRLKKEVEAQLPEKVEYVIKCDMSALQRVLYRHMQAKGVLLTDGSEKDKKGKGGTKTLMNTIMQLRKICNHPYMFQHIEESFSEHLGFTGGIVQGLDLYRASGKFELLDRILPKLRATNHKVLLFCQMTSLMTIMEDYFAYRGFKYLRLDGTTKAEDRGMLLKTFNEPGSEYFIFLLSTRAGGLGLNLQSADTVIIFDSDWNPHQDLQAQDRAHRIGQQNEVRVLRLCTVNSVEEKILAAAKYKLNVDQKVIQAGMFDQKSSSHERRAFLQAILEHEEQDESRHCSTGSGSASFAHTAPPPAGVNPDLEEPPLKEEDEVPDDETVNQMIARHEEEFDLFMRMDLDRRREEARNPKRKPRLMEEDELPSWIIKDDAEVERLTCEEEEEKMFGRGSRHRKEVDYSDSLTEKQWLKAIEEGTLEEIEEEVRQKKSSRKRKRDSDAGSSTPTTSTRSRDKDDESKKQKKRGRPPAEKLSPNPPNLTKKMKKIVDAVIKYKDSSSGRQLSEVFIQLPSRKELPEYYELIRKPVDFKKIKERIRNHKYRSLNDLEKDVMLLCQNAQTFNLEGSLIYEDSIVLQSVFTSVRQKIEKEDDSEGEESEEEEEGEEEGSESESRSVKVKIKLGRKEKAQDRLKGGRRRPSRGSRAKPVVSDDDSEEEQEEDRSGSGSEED
T2 sequence (P51531 whole entry, the tested form may be a part): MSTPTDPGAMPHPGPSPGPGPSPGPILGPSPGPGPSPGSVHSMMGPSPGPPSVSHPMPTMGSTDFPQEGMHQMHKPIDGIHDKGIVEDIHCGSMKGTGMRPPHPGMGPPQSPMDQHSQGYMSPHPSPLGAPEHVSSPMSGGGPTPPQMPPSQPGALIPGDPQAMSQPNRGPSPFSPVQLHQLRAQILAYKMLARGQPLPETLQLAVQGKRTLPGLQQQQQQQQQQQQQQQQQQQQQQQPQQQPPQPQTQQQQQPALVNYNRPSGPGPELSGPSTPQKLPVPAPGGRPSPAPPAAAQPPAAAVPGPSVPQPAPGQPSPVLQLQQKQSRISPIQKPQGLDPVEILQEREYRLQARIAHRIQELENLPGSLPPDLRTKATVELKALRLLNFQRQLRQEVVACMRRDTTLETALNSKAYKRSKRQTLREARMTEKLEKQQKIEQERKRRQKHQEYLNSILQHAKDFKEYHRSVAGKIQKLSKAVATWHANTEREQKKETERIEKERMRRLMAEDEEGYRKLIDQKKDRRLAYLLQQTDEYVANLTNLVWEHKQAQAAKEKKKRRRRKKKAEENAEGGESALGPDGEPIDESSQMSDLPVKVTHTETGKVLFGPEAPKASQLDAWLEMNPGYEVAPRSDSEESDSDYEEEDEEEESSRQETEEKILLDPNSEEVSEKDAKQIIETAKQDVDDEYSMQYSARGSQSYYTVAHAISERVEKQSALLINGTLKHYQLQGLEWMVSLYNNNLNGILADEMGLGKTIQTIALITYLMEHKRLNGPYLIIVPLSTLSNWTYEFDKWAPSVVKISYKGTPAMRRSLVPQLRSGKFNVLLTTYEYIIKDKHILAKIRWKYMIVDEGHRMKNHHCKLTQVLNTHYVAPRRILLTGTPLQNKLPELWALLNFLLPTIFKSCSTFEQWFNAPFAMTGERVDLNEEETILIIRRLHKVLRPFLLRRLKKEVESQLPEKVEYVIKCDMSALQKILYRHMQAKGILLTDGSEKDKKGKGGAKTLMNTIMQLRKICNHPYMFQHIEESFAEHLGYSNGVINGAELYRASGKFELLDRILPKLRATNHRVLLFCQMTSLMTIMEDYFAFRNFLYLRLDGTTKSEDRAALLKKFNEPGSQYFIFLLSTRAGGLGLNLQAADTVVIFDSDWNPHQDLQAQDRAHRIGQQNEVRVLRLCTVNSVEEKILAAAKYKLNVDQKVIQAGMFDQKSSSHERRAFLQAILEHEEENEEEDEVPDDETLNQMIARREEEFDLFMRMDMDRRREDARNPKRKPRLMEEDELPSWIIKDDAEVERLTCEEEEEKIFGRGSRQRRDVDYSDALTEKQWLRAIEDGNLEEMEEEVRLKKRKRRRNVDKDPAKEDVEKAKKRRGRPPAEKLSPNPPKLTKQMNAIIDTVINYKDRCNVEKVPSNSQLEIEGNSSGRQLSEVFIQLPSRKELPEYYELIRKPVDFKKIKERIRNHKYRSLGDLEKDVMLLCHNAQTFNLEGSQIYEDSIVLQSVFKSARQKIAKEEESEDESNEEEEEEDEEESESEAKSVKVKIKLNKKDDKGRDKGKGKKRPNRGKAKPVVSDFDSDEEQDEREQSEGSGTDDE

SMILES	Dmax [1]	DC50 [2]	DC50 [1]	BRM HiBit Degradation Maximum (%) [2]
CC(C)[C@@H](C(=O)N1C[C@H](O)C[C@H]1C(=O)N[C@@H](C)c1ccccc1F)c1cc(N2CC3(CN(c4ccc5cc(-c6ccccc6O)nnc5c4)C3)C2)no1 [Compound 110, (2S,4R)-N-((S)-1-(2-fluorophenyl)ethyl)-4-hydroxy-1-((R)-2-(3-(6-(3-(2-hydroxyphenyl)cinnolin-7-yl)-2,6-diazaspiro[3.3]heptan-2-yl)isoxazol-5-yl)-3-methylbutanoyl)pyrrolidine-2-carboxamide]	< 50%	< 10 nM	–	A (“A” indicates maximum degradation ≥75%)
CC(C)[C@@H](C(=O)N1C[C@H](O)C[C@H]1C(=O)NCc1ccccc1)c1cc(N2CC3(CN(c4ccc5cc(-c6ccccc6O)nnc5c4)C3)C2)no1 [Compound 111, (2S,4R)-N-benzyl-4-hydroxy-1-((R)-2-(3-(6-(3-(2-hydroxyphenyl)cinnolin-7-yl)-2,6-diazaspiro[3.3]heptan-2-yl)isoxazol-5-yl)-3-methylbutanoyl)pyrrolidine-2-carboxamide]	< 50%	< 10 nM	–	A (“A” indicates maximum degradation ≥75%)
CC(C)C(C(=O)N1C[C@H](O)C[C@H]1C(=O)N[C@@H](C)c1ccc(C#N)cc1)c1cc(N2CC3(CN(c4ccc5cc(-c6ccccc6O)nnc5c4)C3)C2)no1 (stereo partly drawn) [Compound 112, (2S,4R)-N-((S)-1-(4-cyanophenyl)ethyl)-4-hydroxy-1-(2-(3-(6-(3-(2-hydroxyphenyl)cinnolin-7-yl)-2,6-diazaspiro[3.3]heptan-2-yl)isoxazol-5-yl)-3-methylbutanoyl)pyrrolidine-2-carboxamide]	> 50%	< 10 nM	> 10 nM	A (“A” indicates maximum degradation ≥75%)
CC(C)C(C(=O)N1C[C@H](O)C[C@H]1C(=O)N[C@@H](C)c1ccc(Cl)cc1)c1cc(N2CC3(CN(c4ccc5cc(-c6ccccc6O)nnc5c4)C3)C2)no1 (stereo partly drawn) [Compound 113, (2S,4R)-N-((S)-1-(4-chlorophenyl)ethyl)-4-hydroxy-1-(2-(3-(6-(3-(2-hydroxyphenyl)cinnolin-7-yl)-2,6-diazaspiro[3.3]heptan-2-yl)isoxazol-5-yl)-3-methylbutanoyl)pyrrolidine-2-carboxamide]	< 50%	< 10 nM	–	A (“A” indicates maximum degradation ≥75%)
CNC(=O)[C@@H]1C[C@@H](O)CN1C(=O)C(c1cc(N2CC3(CN(c4ccc5cc(-c6ccccc6O)nnc5c4)C3)C2)no1)C(C)C (stereo partly drawn) [Compound 114, (2S,4R)-4-hydroxy-1-(2-(3-(6-(3-(2-hydroxyphenyl)cinnolin-7-yl)-2,6-diazaspiro[3.3]heptan-2-yl)isoxazol-5-yl)-3-methylbutanoyl)-N-methylpyrrolidine-2-carboxamide]	< 50%	< 10 nM	–	A (“A” indicates maximum degradation ≥75%)
CC(C)[C@@H](C(=O)N1C[C@H](O)C[C@H]1C(=O)N[C@@H](C)c1ccccc1)c1cc(N2CC[C@@H](c3ccc4cc(-c5ccccc5O)nnc4c3)C2)no1 [Compound 116, (2S,4R)-4-hydroxy-1-((R)-2-(3-((S)-3-(3-(2-hydroxyphenyl)cinnolin-7-yl)pyrrolidin-1-yl)isoxazol-5-yl)-3-methylbutanoyl)-N-((S)-1-phenylethyl)pyrrolidine-2-carboxamide]	< 50%	< 10 nM	–	A (“A” indicates maximum degradation ≥75%)
Cc1ncsc1-c1ccc(CNC(=O)[C@@H]2C[C@@H](O)CN2C(=O)C(c2cc(N3CC4(CN(c5ccc6cc(-c7ccccc7O)nnc6c5)C4)C3)no2)C(C)C)cc1 (stereo partly drawn) [Compound 117, (2S,4R)-4-hydroxy-1-(2-(3-(6-(3-(2-hydroxyphenyl)cinnolin-7-yl)-2,6-diazaspiro[3.3]heptan-2-yl)isoxazol-5-yl)-3-methylbutanoyl)-N-(4-(4-methylthiazol-5-yl)benzyl)pyrrolidine-2-carboxamide]	< 50%	< 10 nM	–	A (“A” indicates maximum degradation ≥75%)
CC(C)[C@@H](C(=O)N1C[C@H](O)C[C@H]1C(=O)N[C@@H](C)c1ccccc1)c1cc(N2CC[C@H](c3ccc4cc(-c5ccccc5O)nnc4c3)C2)no1 [Compound 118, (2S,4R)-4-hydroxy-1-((R)-2-(3-((R)-3-(3-(2-hydroxyphenyl)cinnolin-7-yl)pyrrolidin-1-yl)isoxazol-5-yl)-3-methylbutanoyl)-N-((S)-1-phenylethyl)pyrrolidine-2-carboxamide]	< 50%	> 10 nM	–	A (“A” indicates maximum degradation ≥75%)
CC(C)C(C(=O)N1C[C@H](O)C[C@H]1C(=O)NCC12CC(C1)C2)c1cc(N2CC3(CN(c4ccc5cc(-c6ccccc6O)nnc5c4)C3)C2)no1 (stereo partly drawn) [Compound 119, (2S,4R)-N-(bicyclo[1.1.1]pentan-1-ylmethyl)-4-hydroxy-1-(2-(3-(6-(3-(2-hydroxyphenyl)cinnolin-7-yl)-2,6-diazaspiro[3.3]heptan-2-yl)isoxazol-5-yl)-3-methylbutanoyl)pyrrolidine-2-carboxamide]	< 50%	> 10 nM	–	A (“A” indicates maximum degradation ≥75%)
CC(C)C(C(=O)N1C[C@H](O)C[C@H]1C(=O)N[C@@H](C)c1ccccn1)c1cc(N2CC3(CN(c4ccc5cc(-c6ccccc6O)nnc5c4)C3)C2)no1 (stereo partly drawn) [Compound 120, (2S,4R)-4-hydroxy-1-(2-(3-(6-(3-(2-hydroxyphenyl)cinnolin-7-yl)-2,6-diazaspiro[3.3]heptan-2-yl)isoxazol-5-yl)-3-methylbutanoyl)-N-((S)-1-(pyridin-2-yl)ethyl)pyrrolidine-2-carboxamide]	< 50%	> 10 nM	–	A (“A” indicates maximum degradation ≥75%)

Continued, in another order:

Dmax [1]	DC50 [2]	DC50 [1]	SMILES	BRM HiBit Degradation Maximum (%) [2]
> 75%	< 10 nM	< 10 nM	Cc1ncsc1-c1ccc([C@H](C)NC(=O)[C@@H]2C[C@@H](O)CN2C(=O)[C@@H](c2cc(N3CCN([C@H]4CCN(c5ccc6cc(-c7ccccc7O)nnc6c5)CC4(F)F)CC3)no2)C(C)C)cc1 [Compound 115, (2S,4R)-1-((R)-2-(3-(4-((S)-3,3-difluoro-1-(3-(2-hydroxyphenyl)cinnolin-7-yl)piperidin-4-yl)piperazin-1-yl)isoxazol-5-yl)-3-methylbutanoyl)-4-hydroxy-N-((S)-1-(4-(4-methylthiazol-5-yl)phenyl)ethyl)pyrrolidine-2-carboxamide]	A (“A” indicates maximum degradation ≥75%)
> 75%	< 10 nM	< 10 nM	Cc1cc2cc(-c3ccccc3O)nnc2cc1N1CC2(CN(c3cc([C@H](C(=O)N4C[C@H](O)C[C@H]4C(=O)N[C@@H](C)c4ccc(-c5scnc5C)cc4)C(C)C)on3)C2)C1 [Compound 121, (2S,4R)-4-hydroxy-1-((R)-2-(3-(6-(3-(2-hydroxyphenyl)-6-methylcinnolin-7-yl)-2,6-diazaspiro[3.3]heptan-2-yl)isoxazol-5-yl)-3-methylbutanoyl)-N-((S)-1-(4-(4-methylthiazol-5-yl)phenyl)ethyl)pyrrolidine-2-carboxamide]	A (“A” indicates maximum degradation ≥75%)
> 75%	< 10 nM	< 10 nM	Cc1ncsc1-c1ccc([C@H](C)NC(=O)[C@@H]2C[C@@H](O)CN2C(=O)[C@@H](c2cc(N3CCC4(CC3)CC(N(C)c3ccc5cc(-c6ccccc6O)nnc5c3)C4)no2)C(C)C)cc1 [Compound 122, (2S,4R)-4-hydroxy-1-((R)-2-(3-(2-((3-(2-hydroxyphenyl)cinnolin-7-yl)(methyl)amino)-7-azaspiro[3.5]nonan-7-yl)isoxazol-5-yl)-3-methylbutanoyl)-N-((S)-1-(4-(4-methylthiazol-5-yl)phenyl)ethyl)pyrrolidine-2-carboxamide]	A (“A” indicates maximum degradation ≥75%)
> 75%	< 10 nM	< 10 nM	Cc1ncsc1-c1ccc([C@H](C)NC(=O)[C@@H]2C[C@@H](O)CN2C(=O)[C@@H](c2cc(N3CCN([C@H]4CCN(c5ccc6nnc(-c7ccccc7O)cc6c5)CC4(F)F)CC3)no2)C(C)C)cc1 [Compound 123, (2S,4R)-1-((R)-2-(3-(4-((S)-3,3-difluoro-1-(3-(2-hydroxyphenyl)cinnolin-6-yl)piperidin-4-yl)piperazin-1-yl)isoxazol-5-yl)-3-methylbutanoyl)-4-hydroxy-N-((S)-1-(4-(4-methylthiazol-5-yl)phenyl)ethyl)pyrrolidine-2-carboxamide]	A (“A” indicates maximum degradation ≥75%)
> 75%	< 10 nM	< 10 nM	Cc1ncsc1-c1ccc([C@H](C)NC(=O)[C@@H]2C[C@@H](O)CN2C(=O)[C@@H](c2cc(N3CCN([C@@H]4CCN(c5ccc6nnc(-c7ccccc7O)cc6c5)CC4(F)F)CC3)no2)C(C)C)cc1 [Compound 124, (2S,4R)-1-((R)-2-(3-(4-((R)-3,3-difluoro-1-(3-(2-hydroxyphenyl)cinnolin-6-yl)piperidin-4-yl)piperazin-1-yl)isoxazol-5-yl)-3-methylbutanoyl)-4-hydroxy-N-((S)-1-(4-(4-methylthiazol-5-yl)phenyl)ethyl)pyrrolidine-2-carboxamide]	A (“A” indicates maximum degradation ≥75%)
